Assay results as given in US7781591B2, “Substituted 3-cyanopyridines as protein kinase inhibitors” (Wyeth LLC, priority 2006, dated 2010).

The compounds below were run against T1, human PKCθ full length enzyme (Homo sapiens, UniProt Q04759) (assay: PKCθ IMAP assay (fluorescence polarization)). Settings: not given.
T1 construct: human PKCθ full length enzyme (Panvera Cat# P2996); purchased Panvera P2996
Type: biochemical

T1 sequence (Q04759 whole entry): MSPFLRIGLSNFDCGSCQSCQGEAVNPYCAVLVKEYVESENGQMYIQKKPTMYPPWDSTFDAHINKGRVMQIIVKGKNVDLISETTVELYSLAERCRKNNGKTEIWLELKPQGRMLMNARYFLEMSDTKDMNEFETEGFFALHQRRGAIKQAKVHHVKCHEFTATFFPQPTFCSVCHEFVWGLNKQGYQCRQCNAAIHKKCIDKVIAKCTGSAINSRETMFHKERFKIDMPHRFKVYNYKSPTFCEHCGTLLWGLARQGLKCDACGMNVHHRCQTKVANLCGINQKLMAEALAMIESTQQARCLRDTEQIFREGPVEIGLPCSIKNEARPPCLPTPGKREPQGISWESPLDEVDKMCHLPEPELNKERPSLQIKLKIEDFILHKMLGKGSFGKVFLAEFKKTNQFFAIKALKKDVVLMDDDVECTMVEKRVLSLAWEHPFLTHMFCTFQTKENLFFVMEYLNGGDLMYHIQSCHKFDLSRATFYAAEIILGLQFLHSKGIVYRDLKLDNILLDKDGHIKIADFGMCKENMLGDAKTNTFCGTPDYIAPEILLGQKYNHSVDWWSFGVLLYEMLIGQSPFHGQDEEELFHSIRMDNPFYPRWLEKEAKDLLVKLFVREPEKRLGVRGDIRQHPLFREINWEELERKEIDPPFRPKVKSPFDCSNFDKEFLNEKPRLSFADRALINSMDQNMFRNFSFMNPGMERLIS

Row | Compound | IC50 [µM]
1 | COc1ccc(-c2cncc(C#N)c2-c2ccc3[nH]ccc3c2)cc1OC [Compound 221, 5-(3,4-dimethoxyphenyl)-4-(1H-indol-5-yl)nicotinonitrile] | 1.75

Same assay, conditions: human PKCθ full length enzyme, IMAP; average value; read-out: IC50 PKCθ IMAP

Row | Compound | IC50 [µM]
2 | N#Cc1cncc(-c2cc3cc(CNCCc4ccccc4)ccc3s2)c1Nc1cccc2[nH]ccc12 [Compound 287, 4-(1H-indol-4-ylamino)-5-(5-{[(2-phenylethyl)amino]methyl}-1-benzothien-2-yl)nicotinonitrile] | 0.003
3 | Cc1cc2[nH]ccc2cc1Nc1c(C#N)cncc1-c1cc2cc(CO)ccc2o1 [Compound 499, 5-[5-(hydroxymethyl)-1-benzofuran-2-yl]-4-[(6-methyl-1H-indol-5-yl)amino]nicotinonitrile] | 0.003
4 | COc1ccc(-c2cncc(C#N)c2Nc2ccc3[nH]ccc3c2C)cc1OCCN1CCN(C)CC1 [Compound 343, 5-{4-methoxy-3-[2-(4-methylpiperazin-1-yl)ethoxy]phenyl}-4-[(4-methyl-1H-indol-5-yl)amino]nicotinonitrile] | 0.01
5 | N#Cc1cccc(-c2cccc(-c3cncc(C#N)c3Nc3ccc4[nH]ccc4c3)c2)c1 [Compound 132, 5-(3′-cyanobiphenyl-3-yl)-4-(1H-indol-5-ylamino)nicotinonitrile] | 0.11
6 | COc1ccc(-c2cncc(C#N)c2N[C@H]2CC[C@@H](N)CC2)cc1OC [Compound 446, 4-[(cis-4-aminocyclohexyl)amino]-5-(3,4-dimethoxyphenyl)nicotinonitrile] | 4.88
7 | Cc1cc2[nH]ccc2cc1Nc1c(C#N)cncc1-c1ccc(OCCN2CCC(O)CC2)cc1 [Compound 505, 5-{4-[2-(4-hydroxypiperidin-1-yl)ethoxy]phenyl}-4-[(6-methyl-1H-indol-5-yl)amino]nicotinonitrile] | 0.076
8 | N#Cc1cncc(-c2cccc(-c3cccs3)c2)c1Nc1ccc2[nH]ccc2c1 [Compound 136, 4-(1H-indol-5-ylamino)-5-[3-(2-thienyl)phenyl]nicotinonitrile] | 0.13
9 | Cc1c(Nc2c(C#N)cncc2-c2ccc(CN3CCN(C)CC3)cc2)ccc2[nH]ccc12 [Compound 449, 4-[(4-methyl-1H-indol-5-yl)amino]-5-{4-[(4-methylpiperazin-1-yl)methyl]phenyl}nicotinonitrile] | 0.005
10 | Cc1c(Nc2c(C#N)cncc2-c2ccc(OCCCCN3CCN(C)CC3)cc2)ccc2[nH]ccc12 [Compound 491, 4-[(4-methyl-1H-indol-5-yl)amino]-5-{4-[4-(4-methylpiperazin-1-yl)butoxy]phenyl}nicotinonitrile] | 0.015
11 | Cc1c(Nc2c(C#N)cncc2-c2cccc(CN3CCOCC3)c2)ccc2[nH]ccc12 [Compound 456, 4-[(4-methyl-1H-indol-5-yl)amino]-5-[3-(morpholin-4-ylmethyl)phenyl]nicotinonitrile] | 0.023
12 | Cc1c(Nc2c(C#N)cncc2-c2cccc(-c3ccc(C(=O)NCCCCO)cc3)c2)ccc2[nH]ccc12 [Compound 309, 3′-{5-cyano-4-[(4-methyl-1H-indol-5-yl)amino]pyridin-3-yl}-N-(4-hydroxybutyl)biphenyl-4-carboxamide] | 0.12
13 | N#Cc1cccc(-c2cncc(C#N)c2Nc2cccc3[nH]ccc23)c1 [Compound 311, 5-(3-cyanophenyl)-4-(1H-indol-4-ylamino)nicotinonitrile] | 0.02
14 | Cc1c(Nc2c(C#N)cncc2-c2cncnc2)ccc2[nH]ccc12 [Compound 509, 4-[(4-methyl-1H-indol-5-yl)amino]-5-pyrimidin-5-ylnicotinonitrile] | 0.261
15 | Cc1c(Nc2c(C#N)cncc2-c2ccc(N3CCCCC3)nc2)ccc2[nH]ccc12 [Compound 508, 4-[(4-methyl-1H-indol-5-yl)amino]-6′-piperidin-1-yl-3,3′-bipyridine-5-carbonitrile] | 0.078
16 | COc1ccc(-c2cncc(C#N)c2NCCC2CCNCC2)cc1OC [Compound 444, 5-(3,4-dimethoxyphenyl)-4-[(2-piperidin-4-ylethyl)amino]nicotinonitrile] | 2.46
17 | 4-(1H-indol-4-ylamino)-5-(4-{2-[(3-phenylpropyl)amino]ethoxy}phenyl)nicotinonitrile [Compound 347] | 0.004
18 | CNCCNC(=O)c1ccc(-c2cccc(-c3cncc(C#N)c3Nc3ccc4[nH]ccc4c3)c2)cc1 [Compound 211, 3′-[5-cyano-4-(1H-indol-5-ylamino)pyridin-3-yl]-N-[2-(methylamino)ethyl]biphenyl-4-carboxamide] | 0.33
19 | Cc1c(Nc2c(C#N)cncc2-c2ccc(OCCCN3CCCCC3)cc2)ccc2[nH]ccc12 [Compound 474, 4-[(4-methyl-1H-indol-5-yl)amino]-5-[4-(3-piperidin-1-ylpropoxy)phenyl]nicotinonitrile] | 0.013
20 | Cc1c(Nc2c(C#N)cncc2-c2ccc(OCCN3CCN(C)CC3)cc2Cl)ccc2[nH]ccc12 [Compound 470, 5-{2-chloro-4-[2-(4-methylpiperazin-1-yl)ethoxy]phenyl}-4-[(4-methyl-1H-indol-5-yl)amino]nicotinonitrile] | 0.107
21 | Cc1c(Nc2c(C#N)cncc2-c2ccc(OCCCl)cc2)cc(Cl)c2[nH]ccc12 [Compound 533, 5-[4-(2-chloroethoxy)phenyl]-4-[(7-chloro-4-methyl-1H-indol-5-yl)amino]nicotinonitrile] | 0.051

Row | Compound | IC50 [µM]
22 | Cc1c(Nc2c(C#N)cncc2-c2cccc(-c3ccc(C=O)s3)c2)ccc2[nH]ccc12 [Compound 306, 5-[3-(5-formyl-2-thienyl)phenyl]-4-[(4-methyl-1H-indol-5-yl)amino]nicotinonitrile] | 0.06
23 | N#Cc1cncc(-c2cccnc2)c1Nc1ccc2[nH]ccc2c1 [Compound 259, 4-(1H-indol-5-ylamino)-3,3′-bipyridine-5-carbonitrile] | 1.37
24 | N#Cc1cncc(-c2cc3cc(CNCc4ccccc4)ccc3s2)c1Nc1cccc2[nH]ccc12 [Compound 286, 5-{5-[(benzylamino)methyl]-1-benzothien-2-yl}-4-(1H-indol-4-ylamino)nicotinonitrile] | 0.001
25 | CCCCN(CCCC)Cc1ccc(-c2cncc(C#N)c2Nc2ccc3[nH]ccc3c2C)o1 [Compound 407, 5-{5-[(dibutylamino)methyl]-2-furyl}-4-[(4-methyl-1H-indol-5-yl)amino]nicotinonitrile] | 0.02
26 | COCCNC(=O)c1ccc(-c2cncc(C#N)c2Nc2cccc3[nH]ccc23)cc1 [Compound 330, 4-[5-cyano-4-(1H-indol-4-ylamino)pyridin-3-yl]-N-(2-methoxyethyl)benzamide] | 0.13
27 | Cc1c(Nc2c(C#N)cncc2-c2ccc(OCCN3CCC(N4CCOCC4)CC3)cc2)ccc2[nH]ccc12 [Compound 424, 4-[(4-methyl-1H-indol-5-yl)amino]-5-{4-[2-(4-morpholin-4-ylpiperidin-1-yl)ethoxy]phenyl}nicotinonitrile] | 0.004
28 | N#Cc1cncc(-c2cc3cc(C4OCCCO4)ccc3o2)c1Nc1cccc2[nH]ccc12 [Compound 369, 5-[5-(1,3-dioxan-2-yl)-1-benzofuran-2-yl]-4-(1H-indol-4-ylamino)nicotinonitrile] | 0.04
29 | COc1ccc(-c2cncc(C#N)c2Nc2cc(Cl)c3[nH]ccc3c2C)cc1OC [Compound 498, 4-[(7-chloro-4-methyl-1H-indol-5-yl)amino]-5-(3,4-dimethoxyphenyl)nicotinonitrile] | 0.016
30 | N#Cc1cncc(-c2cccc(-c3ccc(C(=O)N4CCCC4)cc3)c2)c1Nc1ccc2[nH]ccc2c1 [Compound 205, 4-(1H-indol-5-ylamino)-5-[4′-(pyrrolidin-1-ylcarbonyl)biphenyl-3-yl]nicotinonitrile] | 0.51
31 | COc1ccc(-c2cncc(C#N)c2Nc2cnc3[nH]ccc3c2)cc1OC [Compound 488, 5-(3,4-dimethoxyphenyl)-4-(1H-pyrrolo[2,3-b]pyridin-5-ylamino)nicotinonitrile] | 2.02
32 | COc1ccc(-c2cncc(C#N)c2Nc2cccc3[nH]ccc23)cc1OCCNCCCN1CCCC1=O [Compound 338, 4-(1H-indol-4-ylamino)-5-[4-methoxy-3-(2-{[3-(2-oxopyrrolidin-1-yl)propyl]amino}ethoxy)phenyl]nicotinonitrile] | 0.008
33 | N#Cc1cncc(-c2cc3cc(CN4CCNCC4)ccc3s2)c1Nc1cccc2[nH]ccc12 [Compound 359, 4-(1H-indol-4-ylamino)-5-[5-(piperazin-1-ylmethyl)-1-benzothien-2-yl]nicotinonitrile] | 0.02
34 | Cc1c(Nc2c(C#N)cncc2-c2ccc(OCCN3CCN(C)CC3)cc2)ccc2[nH]ccc12 [Compound 350, 4-[(4-methyl-1H-indol-5-yl)amino]-5-{4-[2-(4-methylpiperazin-1-yl)ethoxy]phenyl}nicotinonitrile] | 0.008
35 | Cc1c(Nc2c(C#N)cncc2-c2ccc(NC(=O)NC3CC3)cc2)ccc2[nH]ccc12 [Compound 566, 1-(4-{5-cyano-4-[(4-methyl-1H-indol-5-yl)amino]pyridin-3-yl}phenyl)-3-cyclopropylurea] | 0.023
36 | Cc1c(Nc2c(C#N)cncc2-c2cccc(OCCCCN3CCN(C)CC3)c2)ccc2[nH]ccc12 [Compound 502, 4-[(4-methyl-1H-indol-5-yl)amino]-5-{3-[4-(4-methylpiperazin-1-yl)butoxy]phenyl}nicotinonitrile] | 0.021
37 | Cc1c(Nc2c(C#N)cncc2-c2ccccc2)ccc2[nH]ccc12 [Compound 560, 4-[(4-methyl-1H-indol-5-yl)amino]-5-phenylnicotinonitrile] | 0.027
38 | Cc1ccc(S(=O)(=O)n2cc(-c3cncc(C#N)c3Nc3cccc4[nH]ccc34)c3ccccc32)cc1 [Compound 320, 4-(1H-indol-4-ylamino)-5-{1-[(4-methylphenyl)sulfonyl]-1H-indol-3-yl}nicotinonitrile] | 0.03
39 | Cc1c(Nc2c(C#N)cncc2-c2cccc(CN3CCCC3)c2)ccc2[nH]ccc12 [Compound 455, 4-[(4-methyl-1H-indol-5-yl)amino]-5-[3-(pyrrolidin-1-ylmethyl)phenyl]nicotinonitrile] | 0.007
40 | COc1ccc(-c2cncc(C#N)c2Nc2ccc3[nH]ncc3c2)cc1OC [Compound 379, 5-(3,4-dimethoxyphenyl)-4-(1H-indazol-5-ylamino)nicotinonitrile] | 2.53
